For test [1], the system named is CFTR−/− mice. The experiment in a line: Fatty acid levels (GC/MS) in pancreas and lung cells of CFTR−/− mice fed n-3 fatty acids. It counts as in vivo, mouse. To be noted: for DHA level in pancreas: CFTR-/- mice, mean ± S.D.; for DHA level in pancreas / Change in phospholipid/membrane-bound AA (in words) / Change in phospholipid/membrane-bound DHA (in words): 40 mg/day for one week (fish oil: dose equivalent to 40 mg DHA, 60 mg EPA, 15 mg LNA); for Change in phospholipid/membrane-bound AA (in words) / Change in phospholipid/membrane-bound DHA (in words): vs Peptamen alone. As to the method: (§1) Mouse pancreatic acinar and lung cell suspensions were prepared from wild type (n=3) and CFTR−/− mice (n=3) by enzymatic and mechanical dissociation. In addition, brain, kidney, heart, spleen, and blood were sonicated in 0.3M sucrose buffer. Membrane lipids were extracted from cell and organ preparations with 20 volumes of chloroform-methanol 2:1 (v/v), transmethylated with 0.5 mL of 0.1 N methanolic-NaOH/BF3 reagent, and the resulting fatty acid methyl esters analyzed by gas chromatography/mass spectrometry (GC/MS). In a different set of experiments, lipids were fractionated by aminopropyl column chromatography into triglycerides, cholesterol esters, and phosphoglycerides and the fatty acid composition of each lipid class determined by a combination of enzymatic hydrolysis, transmethylation, and GC/MS.
Cystic fibrosis (UNC strain) and wild type mice (12-20 grams body weight) were fed with a complete liquid enteral formulation (Peptamen™, Nestle Clinical Nutrition, Inc.) supplemented with different quantities of the DHA-containing formulation Neuromins (Nature's Way Products Inc., Springville, Utah). DHA content in the Neuromins formulation was 100 mg per 500 mg of formulation. Mice were fed once a day at about 11 a.m., seven days a week with 20 ml of Peptamen™ supplemented with the various amounts of either Neuramins, free DHA (Sigma Chemical Co., MO) or DHA-ethyl ester (Nu-Check-Prep, Inc. MN) ranging from 0.5 mg/day of DHA to 40 mg/day of DHA.
Lung and acinar cells were isolated from a CF mouse fed with DHA formula (mouse-1, 40 mg/day DHA). The pellets (0.5 mL for pancreas cell homogenate and 0.6 mL for lung cell homogenate) were extracted with 3 mL of chloroform-methanol 2:1 (v/v). The resulting emulsion was vortexed, centrifuged at 800 g for 3 min., and the lower phase aspirated. The residual upper phase was partitioned again with 3 mL of chloroform-methanol 2:1 (v/v), the lower phase aspirated and both lower phases combined. Fractions were evaporated to dryness, processed for fatty acid methyl esters (FAME) and were analyzed by GC-MS analysis. Aliquots of 10 μL of 17:0 methyl ester solution in hexane [1 μg/μL] were added to the samples after methylation.
(§2) Lung and acinar cells were isolated from a CF and a wild-type (WT) mouse fed with DHA formula. The pellets (0.5 mL for pancreas cell homogenate and 0.6 mL for lung cell homogenate) were extracted with 3 mL of chloroform-methanol 2:1 (v/v). The resulting emulsion was vortexed, centrifuged at 800 g for 3 min., and the lower phase aspirated. The residual upper phase was partitioned again with 3 mL of chloroform-methanol 2:1 (v/v), the lower phase aspirated and both lower phases combined. Fractions were evaporated to dryness, processed for FAME and analyzed by GC-MS. Aliquots of 20 μL of 17:0 in chloroform-methanol 2:1 (v/v) were added to the samples before methylation.
as §2, with “from” for “from a”, “mice” for “and a wild-type (WT) mouse”, “different doses of DHA, i.e., 0.5 mg/day, 2.0 mg/day, 10 mg/day or 40 mg/day DHA.” for “DHA formula.”, “pellets” for “pellets (0.5 mL for pancreas cell homogenate and 0.6 mL for lung cell homogenate)”, “30” for “20”
CFTR−/− mice were prepared as described in Example 1. Both CFTR−/− mice and wild type mice were euthanized with carbon dioxide, and cell suspensions from pancreas and lung isolated.

The test system of test [2] is wild-type mice. The test is described as follows: Fatty acid levels (GC/MS) in pancreas and lung cells of wild-type mice fed n-3 fatty acids. The test is classed as in vivo, mouse. To be noted: for Change in phospholipid/membrane-bound AA (in words) / Change in phospholipid/membrane-bound DHA (in words): 40 mg/day for one week. The protocol: as §1
Cystic fibrosis (UNC strain) and wild type mice (12-20 grams body weight) were fed with a complete liquid enteral formulation (Peptamen™, Nestle Clinical Nutrition, […], Springville, Utah). DHA content in the Neuromins formulation was 100 mg per 500 mg of formulation. […]
[…] The pellets (0.5 mL for pancreas cell homogenate and 0.6 mL for lung cell homogenate) were extracted with 3 mL of chloroform-methanol 2:1 (v/v). The resulting emulsion was vortexed, centrifuged at 800 g for 3 min., and the lower phase aspirated. The residual upper phase was partitioned again with 3 mL of chloroform-methanol 2:1 (v/v), the lower phase aspirated and both lower phases combined. Fractions were evaporated to dryness, processed for FAME and analyzed by GC-MS. Aliquots of 20 μL of 17:0 in chloroform-methanol 2:1 (v/v) were added to the samples before methylation.
CFTR−/− mice were prepared as described in Example 1. Both CFTR−/− mice and wild type mice were euthanized with carbon dioxide, and cell suspensions from pancreas and lung isolated. Pancreatic acini were prepared by collagenase and mechanical dissociation (Bruzzone et al., (1985) Biochem. J. 226:621-624). A total lung cell suspension was prepared by first flushing contaminating blood by repeated injection of lung with Krebs Henseleit buffer (KHB). Tissue was then extensively minced and incubated for 30 minutes at 37° C. in 10 ml of KHB containing 1,000 units of collagenase (Worthington Biochemical, PA) 2,000 units of DNase, and 0.5 units of thermolysin (Sigma Chemical Co., St. Louis, Mo.). The resulting cell suspension was sedimented once through KHB containing 5% BSA and subsequently washed once in KHB, pH 7.4 containing 32 mM bicarbonate, 10 mM Hepes, and 0.5% BSA. Brain, kidney, and heart were removed and sonicated in 0.5 mL and 0.3M sucrose. A similar approach was used for duodenum and ileum except that mucosal scrapings were used for sonication.
Since the pancreas and the lung are the two primary organs affected in cystic fibrosis, AA and DHA levels in cell preparations of these organs and in wild-type and CFTR−/− mice were quantitated by GC/MS analysis. Lipids were extracted from cell suspensions, tissue homogenates, and blood plasma with 6 volumes of chloroform-methanol (2:1, v/v). The resulting emulsions were centrifuged at 600 g for 3 min and the lower phase containing the lipids was collected. This procedure was repeated twice and the lower phases from the two extractions combined. Aliquots of 30 μL of heptadecanoic acid (17:0) (1 mg/ml) were added to the extracts and used as an internal standard.

[3] abbreviates: CF mice, 40 mg/day DHA (dose series, Table 5).
The mark [4] stands for this setting: CF mouse-1, 40 mg/day DHA, day 30 to day 37.
Setting [5] is: CF mouse-2, 40 mg/day DHA, day 24 to day 47.
The mark [6] stands for this setting: WT mouse fed Peptamen supplemented with DHA.
Setting [7] is: CFTR (-/-) mice, 40 mg DPA per day for 7 days.
[8] abbreviates: wild-type mice, 40 mg DPA per day for 7 days.
Setting [9] is: CFTR−/− mice, listed as 18:3n-3.
The mark [10] stands for this setting: wild-type mice, listed as 18:3n-3.

Where “and” joins values, the source holds several entries; their conditions need not be identical. Identical values can stand only once. Entries after “also recorded” stand apart in the source; their conditions may differ.

Turning to `CC/C=C\C/C=C\C/C=C\C/C=C\C/C=C\C/C=C\CCC(=O)O` [DHA, docosahexaenoic acid], the “20:4n-6 in pancreas” value in test [1] (CF mice, 0.5 mg/day DHA) was 315 nmoles per total extract; in test [1] (CF mice, 2 mg/day DHA) it was 233 nmoles per total extract; in test [1] (CF mice, 10 mg/day DHA), 177 nmoles per total extract; in test [1] (setting [3]) it was 67 nmoles per total extract; in test [1] (setting [4]), 144^1 nmoles per total extract; in test [1] (setting [5]), 67^1 nmoles per total extract and 67 nmoles per total extract. The “20:4n-6 in pancreas” value in test [2] (setting [6]) is given as 82 nmoles per total extract. Besides, the “22:4n-6 in pancreas” value amounted to 8.3 nmoles per total extract in test [1] (CF mice, 0.5 mg/day DHA); 7.2 nmoles per total extract in test [1] (CF mice, 2 mg/day DHA); 3.7 nmoles per total extract in test [1] (CF mice, 10 mg/day DHA); 0.4 nmoles per total extract in test [1] (setting [3]); 1.5 nmoles per total extract in test [1] (setting [4]); 0.4 nmoles per total extract in test [1] (setting [5]). Besides, in test [2] (setting [6]), the “22:4n-6 in pancreas” value is listed as 1.6 nmoles per total extract. Also, the “22:6n-3 in pancreas” value in test [1] (CF mice, 0.5 mg/day DHA) came out at 39 nmoles per total extract; in test [1] (CF mice, 2 mg/day DHA) it was 43 nmoles per total extract; in test [1] (CF mice, 10 mg/day DHA) it was 67 nmoles per total extract; in test [1] (setting [3]) it was 148 nmoles per total extract; in test [1] (setting [4]), 167 nmoles per total extract; in test [1] (setting [5]), 148 nmoles per total extract. Besides, the “22:6n-3 in pancreas” value in test [2] (setting [6]) came to 200 nmoles per total extract. The “20:4n-6 in lung” value is reported as 75 nmoles per total extract in test [1] (setting [4]), 60 nmoles per total extract in test [1] (setting [5]) and 28 nmoles per total extract in test [2] (setting [6]). Further, the “22:4n-6 in lung” value is recorded as 12 nmoles per total extract in test [1] (setting [4]), 4.1 nmoles per total extract in test [1] (setting [5]) and 2 nmoles per total extract in test [2] (setting [6]). The “22:6n-3 in lung” value in test [1] (setting [4]) came out at 167 nmoles per total extract; in test [1] (setting [5]), 222 nmoles per total extract; in test [2] (setting [6]) it was 227 nmoles per total extract. Besides, the “DHA level in pancreas” value in test [1] is 7.9 ± 1.5 nmol/mg. The “Increase of DHA levels in pancreas above wild-type levels” value in test [1] (CFTR−/− mice, 40 mg DHA/day) is 3 fold.

Take `CC/C=C\C/C=C\C/C=C\C/C=C\C/C=C\CCCCCC(=O)O` [DPA, docosapentaenoic acid]: in test [1] (setting [7]), the “20:4n-6 in lung” value is on record as 5.8 ± 0.9 (17.5) nmoles of fatty acid per mg of protein, the “20:4n-6 in pancreas” value is on record as 5.1 ± 0.6^1 (13.3) nmoles of fatty acid per mg of protein, the “20:5n-3 in lung” value was 15.6 ± 1.1 (0.1) nmoles of fatty acid per mg of protein and the “22:6n-3 in lung” value is given as 5.5 ± 0.8(4.0) nmoles of fatty acid per mg of protein. In addition, the “DHA level in pancreas” value in test [1] was 3.7 ± 0.4 nmol/mg. For the same compound, in test [2] (setting [8]), the “20:4n-6 in lung” value is listed as 7.8 ± 0.9 (17.5) nmoles of fatty acid per mg of protein, the “20:4n-6 in pancreas” value is given as 6.8 ± 0.6 (13.3) nmoles of fatty acid per mg of protein, the “20:5n-3 in lung” value is given as 8.6 ± 0.8 (0.07) nmoles of fatty acid per mg of protein and the “20:5n-3 in pancreas” value is 7.5 ± 0.8 (0.07) nmoles of fatty acid per mg of protein. Also, in test [2] (setting [8]), the “22:6n-3 in lung” value was 7.5 ± 0.8 (4.0) nmoles of fatty acid per mg of protein and the “22:6n-3 in pancreas” value was 2.5 ± 0.4 (1.5) nmoles of fatty acid per mg of protein.

As for `CC/C=C\C/C=C\C/C=C\CCCCCCCC(=O)O` [LNA, α-linolenic acid, reference compound], in test [1], the “DHA level in pancreas” value is 0.7 ± 0.07 nmol/mg. Also, the “Change in phospholipid/membrane-bound AA (in words)” value in test [1] (CFTR−/− mice) is reported as “significant decrease; also recorded: four-fold decrease”; in test [1] (setting [9]), “significant decrease”; in test [2] (wild-type mice), “decrease in membrane-bound AA”; in test [2] (setting [10]) it was “decrease in phospholipid-bound AA”. Also, the “Change in phospholipid/membrane-bound DHA (in words)” value was “further decrease; also recorded: two-fold decrease” in test [1] (CFTR−/− mice), “further decrease” in test [1] (setting [9]), “increase in membrane-bound DHA” in test [2] (wild-type mice) and “increase in phospholipid-bound DHA” in test [2] (setting [10]).
